Experimental data as given in patent US5973112A, “Collagen mimics” (Wisconsin Alumni Research Foundation, priority 1997, dated 1999).

Legend:
[1] = crystalline structure, Cγ-Cδ bond length; assay type: physicochemical
Source text: The origin of this effect on trans:cis ratio was explored by determining the crystalline structures of AcProOMe, AcHypOMe, and AcFlpOMe, Panasik et al., Int. J. Pept. Protein Res., 44:262-269. […] This order is consistent with an inductive effect in which the substituent in the 4-position withdraws electron density away from the Cγ-Cδ bond. A shorter Cγ-Cδ bond length diminishes steric clashes between atoms in the trans isomer, but has no effect on the cis isomer. The inductive effect from the hydroxyl group of Hyp residues is consistent with the effect of Hyp on collagen stability. Other manifestations of the inductive effects of Hyp and Flp residues were also found by Panasik et al. and by Eberhardt et al. Similar inductive effects should be manifested in 4(S)-fluoroproline and in 4,4-difluoroproline.

[2] = trans:cis ratio of the proline peptide bond in N-acetyl proline methylester derivatives; assay type: physicochemical; conditions: for ΔΔG: relative to AcProOMe
Description: To begin to test this hypothesis, it was determined how electron-withdrawing groups affect the trans:cis ratio. N-Acetyl proline methylester (AcProOMe), N-acetyl-4(R)-hydroxyproline methylester (AcHypOMe), and N-acetyl-4(R)-fluoroproline (AcFlpOMe) were synthesized and their preferences for the trans state were determined, Eberhardt et al., J. Am. Chem. Soc., 118:12261-12266 (1996).

| Cy-Cδ bond length [1] [Å] | trans:cis ratio [2] | ΔΔG [2] [kcal/mol] | SMILES |
| --- | --- | --- | --- |
| 1.510 | 5.8 | 0.18 | COC(=O)[C@@H]1C[C@@H](O)CN1C(C)=O [AcHypOMe, N-acetyl-4(R)-hydroxyproline methylester] |
| 1.523 | 4.3 | 0 | COC(=O)[C@@H]1CCCN1C(C)=O [AcProOMe, N-Acetyl proline methylester] |
